Results on six compounds are retold here after patent US11466007B2, “Substituted lactams showing serotonin 5-HT receptor activity” (Sumitomo Pharma Co., Ltd., priority 2018, dated 2022).

Data set [1] can be described thus: Test 4: metabolic stability test in human hepatic microsome. Conditions: 0.1 mg/mL microsome, 0.1 μmol/L compound, NADPH, 37° C., 30 minutes. In kind it is in vitro ADME. The procedure, abridged:
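Test compound at 0.1 μmol/L incubated 30 min at 37° C with human liver microsomes (0.1 mg/mL) and NADPH (3.2 mmol/L) in 25 mmol/L phosphate buffer, pH 7.4. Residual compound quantified by LC-MS; clearance (mL/min/mg protein) = −LN(residual ratio)/30/0.1.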

Data set [2] in a line: Test 11: hepatotoxic risk (dansyl glutathione (dGSH) trapping assay). In kind it is in vitro ADME. Conditions: human hepatic microsome, 37° C. for 60 minutes, N.D. means below detection limit. As to the method:
Test 11: Evaluation of Hepatotoxic Risk (Dansyl Glutathione (dGSH) Trapping Assay)
The present compound was metabolized in hepatic microsome, and reactive metabolite which reacts with dansyl glutathione (dGSH) was detected and quantified from the resulting metabolite. Measurement was carried out with a screening robot (Tecan) for metabolic reaction, and with a fluorescence detection UPLC system (Waters) for metabolite-dGSH binding concentration.
The present compound was dissolved in DMSO to prepare 10 mmol/L test compound solution. 7.6 mL of potassium phosphate buffer (500 mmol/L, pH 7.4), 1.9 mL of human hepatic microsome (Xenotech, 20 mg protein/mL), and 1.27 mL of pure water were mixed to prepare a microsome solution. To 3.78 mL of the microsome solution was added 0.67 mL of pure water to prepare a microsome (dGSH(−)) solution. To 6.48 mL of the microsome solution was added 1.14 mL of the dGSH solution (20 mmol/L) to prepare a microsome (dGSH(+)) solution. […]
Metabolite-dGSH binding concentration was measured by the following method, using a fluorescence detection UPLC system (Waters). […]
Fluorescence intensity was corrected with the composition of organic solvent at the time of elution because fluorescence intensity changes depending on the composition of organic solvent.

Data set [3] deals with T1, human 5-HT2A receptor (Homo sapiens (Human), UniProt P28223). Put plainly: Test 3: antagonist activity for human 5-HT2A receptor (aequorin luminescence, CHO-K1 cells). In kind it is cell-based. As to the method: Test 3: Evaluation of Antagonist Activity for Human 5-HT2A Receptor
T1 sequence (P28223 whole entry): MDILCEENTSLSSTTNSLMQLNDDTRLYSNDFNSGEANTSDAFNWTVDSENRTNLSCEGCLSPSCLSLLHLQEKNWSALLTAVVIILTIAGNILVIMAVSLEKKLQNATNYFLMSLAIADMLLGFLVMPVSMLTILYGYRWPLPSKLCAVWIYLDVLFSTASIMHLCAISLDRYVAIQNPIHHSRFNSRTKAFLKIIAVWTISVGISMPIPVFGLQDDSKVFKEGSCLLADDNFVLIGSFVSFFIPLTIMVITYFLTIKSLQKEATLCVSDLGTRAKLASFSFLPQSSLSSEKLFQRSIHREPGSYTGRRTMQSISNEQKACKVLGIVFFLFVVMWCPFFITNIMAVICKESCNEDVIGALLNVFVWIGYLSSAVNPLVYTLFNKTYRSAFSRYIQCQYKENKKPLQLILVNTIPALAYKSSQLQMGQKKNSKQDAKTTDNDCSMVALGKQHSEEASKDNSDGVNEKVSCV
Aequorin, Gα16 protein, and each receptor were transiently expressed in CHO-K1 cells (Chinese hamster ovary). […] Each compound dissolved in DMSO was added thereto, and changes in luminescence were measured by FDSS/μCELL functional drug screening system (Hamamatsu Photonics K.K.). Antagonist activity was calculated from the following formula.
Antagonist activity (%)=100×{(Luminescence of well in the presence of 1 nmol/L 5-HT−Luminescence of well containing solvent)−(Luminescence of well in the presence of test compound and 1 nmol/L 5-HT−Luminescence of well containing solvent)}/(Luminescence of well in the presence of 1 nmol/L 5-HT−Luminescence of well containing solvent)

A further data set concerns the target P-gp (MDR1) (Homo sapiens (Human), UniProt P08183). The data set can be described thus: Test 9: P-gp substrate property (NFR, MDCKII and MDR1-MDCKII cells). It is filed as in vitro ADME. Conditions: ratio of Papp B-A/Papp A-B in MDR1-MDCKII cells to that in MDCKII cells. The protocol: Evaluation test for binding was carried out as follows with the CHO cell membrane fraction in which human target receptor was expressed. […] Each mixture was incubated at room temperature, added quickly on a glassfiber filter plate (Multiscreen FB, Millipore, Inc.), and vacuum-filtered. Radioactivity remaining on the filter was measured with a liquid scintillation counter (PerkinElmer, Inc.). Binding inhibition rate was calculated from the following formula.
NFR (Net Flux Ratio), which is an index of P-gp substrate property, can be calculated as follows. MDCKII (Madin-Darby canine kidney strain II) cells and MDR1-MDCKII cells in which MDR1 (multidrug resistance protein 1) was overexpressed were used to measure an apparent permeability coefficient (Papp A-B) from lumen (A) to basement membrane (B) and an apparent permeability coefficient (Papp B-A) from basement membrane (B) to lumen (A) of both MDCKII cells and MDR1-MDCKII cells. NFR (Net Flux Ratio) was calculated from the ratio between Ratio (Papp B-A/Papp A-B) of an apparent permeability coefficient of MDR1-MDCKII cells and Ratio of an apparent permeability coefficient of MDCKII cells.

Data set [4] in a line: Test 10: intracerebral transferability of rats (Kp,uu,brain). Particulars: rat, brain and plasma, unbound drug concentration ratio brain/plasma, s.c. or oral, 0.5, 1 or 2 hours. It is filed as in vivo, SD or WKY rats. As to the method:
Test 10: Evaluation of Intracerebral Transferability (Test for Intracerebral Transferability of Rats)
In this test, intracerebral transferability of the present compounds was evaluated by the following method. The present compounds were subcutaneously administered as a solution in saline, or orally administered as a suspension in methyl cellulose to 7-week-old SD or WKY rats. Plasma and brain were collected on 0.5 hours, 1 hour, or 2 hours after the administration to measure the drug concentrations in plasma and brain by LC-MS.
Binding rates of the present compound to plasma and brain protein were measured by equilibrium dialysis method.
Kp,uu,brain (unbound drug concentration ratio between brain/plasma) can be calculated by applying the compound concentrations in plasma and brain and the binding rates to plasma and brain protein obtained from the above test into the following formula. Kp,uu,brain=(Compound concentration in brain×(100−Binding rate to brain protein (%))/100)/(Compound concentration in plasma×(100−Binding rate to plasma protein (%))/100)

The target in data set [5] is T2, human 5-HT1A receptor (Homo sapiens (Human), UniProt P08908). Put plainly: Test 1: binding activity for human 5-HT1A receptor ([3H]8-OH-DPAT). Conditions: CHO cell membrane fraction. As to the method: (§1) Test 1: Evaluation of Binding Activity for Human 5-HT1A Receptor, Human 5-HT2A Receptor, and Human D2 Receptor
T2 sequence (P08908 whole entry): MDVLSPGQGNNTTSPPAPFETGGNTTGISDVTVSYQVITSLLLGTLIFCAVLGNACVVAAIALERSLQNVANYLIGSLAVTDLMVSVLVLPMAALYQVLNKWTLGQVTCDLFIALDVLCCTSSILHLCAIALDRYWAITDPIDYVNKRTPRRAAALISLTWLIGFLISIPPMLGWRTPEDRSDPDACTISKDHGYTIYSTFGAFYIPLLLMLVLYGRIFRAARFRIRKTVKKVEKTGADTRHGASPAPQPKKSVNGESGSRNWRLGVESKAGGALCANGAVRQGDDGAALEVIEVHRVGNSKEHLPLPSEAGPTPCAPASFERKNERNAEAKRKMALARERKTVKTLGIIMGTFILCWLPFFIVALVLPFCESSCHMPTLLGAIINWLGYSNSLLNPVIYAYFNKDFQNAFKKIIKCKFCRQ
(§2) Binding affinity of the present compound for human 5-HT1A receptor, human 5-HT2A receptor, and human D2 receptor was measured by the following procedures.
(§3) Each mixture was incubated at room temperature for 60 minutes. Then, the mixture was added quickly on a glassfiber filter plate (Multiscreen FB, Millipore, Inc.) coated with 0.3% aqueous polyethylenimine, and vacuum-filtered. Radioactivity remaining on the filter was measured with a liquid scintillation counter (PerkinElmer, Inc.). Binding inhibition rate was calculated from the following formula.
IC50 value was calculated by Hill analysis (Physiology, 1910, 40, 190-200). Ki of each compound was calculated from the following formula. Binding inhibition constant (Ki)=IC50/(1+S/Kd) wherein S is concentration of ligand; Kd is a binding dissociation constant of ligand to membrane, which is calculated from a saturated binding experiment conducted with the same cell membrane. A small Ki value means strong binding ability to a receptor.

Data set [6] deals with T1, human 5-HT2A receptor. The data set can be described thus: Test 1: binding activity for human 5-HT2A receptor ([3H]Ketanserin). Conditions: CHO cell membrane fraction. The protocol:
as §1, §2, §3
Ki of each compound was calculated from the following formula. Binding inhibition constant (Ki)=IC50/(1+S/Kd) wherein S is concentration of ligand; Kd is a binding dissociation constant of ligand to membrane, which is calculated from a saturated binding experiment conducted with the same cell membrane. A small Ki value means strong binding ability to a receptor.

For data set [7], the target named is T2, human 5-HT1A receptor. Put plainly: Test 2: agonist activity for human 5-HT1A receptor ([35S]GTPγS binding). It is filed as biochemical. The protocol: Test 2: Evaluation of Agonist Activity for Human 5-HT1A Receptor
CHO cell membrane fraction in which human 5-HT1A receptor was expressed as used in Test 1 was purchased. To a buffer containing guanosine diphosphate were added a test compound dissolved in DMSO, each receptor membrane sample diluted with buffer, and [^35S] Guanosine 5′-O-[gamma-thio]triphosphate (GTPγS). The mixture was incubated at room temperature for 60 minutes. Then, the mixture was added quickly on a glassfiber filter plate (Multiscreen FB, Millipore, Inc.), and vacuum-filtered. Radioactivity remaining on the […] was measured with a liquid scintillation counter. Agonist activity was calculated from the following formula.
For orientation: GTPγS is a poorly hydrolysed GTP analogue; its binding reports G protein activation.

Chain of P-gp (MDR1) (P08183 whole entry, species assumed): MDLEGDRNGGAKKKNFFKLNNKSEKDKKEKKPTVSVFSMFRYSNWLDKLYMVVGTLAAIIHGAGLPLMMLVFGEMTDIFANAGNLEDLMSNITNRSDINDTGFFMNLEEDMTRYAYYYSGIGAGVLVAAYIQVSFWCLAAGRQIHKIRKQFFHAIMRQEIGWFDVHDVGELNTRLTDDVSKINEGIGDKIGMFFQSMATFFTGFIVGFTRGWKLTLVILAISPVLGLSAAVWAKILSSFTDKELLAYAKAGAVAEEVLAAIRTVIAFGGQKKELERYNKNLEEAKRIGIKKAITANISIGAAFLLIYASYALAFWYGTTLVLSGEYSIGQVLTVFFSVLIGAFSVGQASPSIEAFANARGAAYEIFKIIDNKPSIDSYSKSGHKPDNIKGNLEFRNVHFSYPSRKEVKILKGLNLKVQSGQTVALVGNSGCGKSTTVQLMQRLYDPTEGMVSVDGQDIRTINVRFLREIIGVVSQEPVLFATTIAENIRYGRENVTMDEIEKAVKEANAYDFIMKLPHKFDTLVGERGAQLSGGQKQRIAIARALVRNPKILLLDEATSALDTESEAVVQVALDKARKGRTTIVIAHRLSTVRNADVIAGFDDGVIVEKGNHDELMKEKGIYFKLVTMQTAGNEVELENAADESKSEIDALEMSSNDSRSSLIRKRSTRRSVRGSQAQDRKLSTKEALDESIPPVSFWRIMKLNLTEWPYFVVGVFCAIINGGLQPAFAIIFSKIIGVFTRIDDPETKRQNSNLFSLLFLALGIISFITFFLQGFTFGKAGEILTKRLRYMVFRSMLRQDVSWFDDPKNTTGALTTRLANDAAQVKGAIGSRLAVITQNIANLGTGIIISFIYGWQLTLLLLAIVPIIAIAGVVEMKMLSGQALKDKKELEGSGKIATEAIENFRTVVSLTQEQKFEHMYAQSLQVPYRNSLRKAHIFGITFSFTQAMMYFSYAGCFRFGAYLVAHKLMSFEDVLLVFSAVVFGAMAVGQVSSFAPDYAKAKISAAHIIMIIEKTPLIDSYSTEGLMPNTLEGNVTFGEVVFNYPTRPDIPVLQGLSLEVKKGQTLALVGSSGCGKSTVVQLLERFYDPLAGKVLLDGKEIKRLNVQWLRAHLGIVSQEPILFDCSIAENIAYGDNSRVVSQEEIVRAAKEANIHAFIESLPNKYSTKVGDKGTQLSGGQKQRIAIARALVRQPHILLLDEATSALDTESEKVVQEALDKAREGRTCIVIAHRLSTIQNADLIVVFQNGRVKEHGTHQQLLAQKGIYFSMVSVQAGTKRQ

Take `O=C1c2ncccc2CCN1CCN1CCC(c2noc3ccccc23)CC1` [Example 22, 7-{2-[4-(1,2-Benzoisoxazol-3-yl)piperidin-1-yl]ethyl}-6,7-dihydro-1,7-naphthyridin-8(5H)-one]: the “Metabolic stability in human hepatic microsome” value (“Metabolic stability” for short) in data set [1] is 0.039 mL/min/mg protein. For the same compound, the Metabolite-dGSH binding concentration in data set [2] is 0.089 µM.
For `O=C1c2ncccc2CCN1CCN1CCC(c2noc3cc(F)c(F)cc23)CC1` [Example 148], at human 5-HT2A receptor [3] (at 10 μM), the 5-HT2A antagonist activity is on record as 45% at 10 μM.
Turning to `Cn1cc2c(n1)CCN(CCN1CCN(c3nsc4ccccc34)CC1)C2=O` [Example 36, 5-{2-[4-(1,2-Benzoisothiazol-3-yl)piperazin-1-yl]ethyl}-2-methyl-2,5,6,7-tetrahydro-4H-pyrazolo[4,3-c]pyridin-4-one], in data set [1], the “Metabolic stability” value is listed as 0.085 mL/min/mg protein. For the same compound, at P-gp (MDR1), the “NFR (Net Flux Ratio)” value amounted to 1.8. Also, the Kp uu at 2 h in data set [4] is 0.08.
On to `Cc1nc2c(o1)C(=O)N(CCN1CCC(c3noc4ccccc34)CC1)CC2` [Example 35, 5-{2-[4-(1,2-Benzoisoxazol-3-yl)piperidin-1-yl]ethyl}-2-methyl-6,7-dihydro[1,3]oxazolo[5,4-c]pyridin-4(5H)-one], for which the “Metabolic stability” value in data set [1] is <0.01 mL/min/mg protein. Besides, the Kp uu at 2 h in data set [4] came out at 1.44.
For the compound `Cn1ncc2c1CCCN(CCN1CCC(c3noc4ccccc34)CC1)C2=O` [Example 43], the “Metabolic stability” value in data set [1] is given as <0.01 mL/min/mg protein. Moreover, the “NFR (Net Flux Ratio)” value on P-gp (MDR1) came to 2.2. Also, the Kp uu at 2 h in data set [4] was 0.18.
`COc1ccc2c(n1)C(=O)N(CCN1CCC(c3noc4ccccc34)CC1)CC2` [Example 187]: the Ki on human 5-HT1A receptor [5] is 1.59 nM; on human 5-HT2A receptor [6], 14.5 nM. For the same compound, the response on human 5-HT1A receptor [7] ([35S]GTPγS binding, CHO cell membrane fraction expressing human 5-HT1A receptor) was half-maximal at 38.2 nM (EC50). The Emax at 10 µM on human 5-HT1A receptor [7] (agonist activity in the presence of 10 μM compound, relative to 100 μmol/L 5-HT) was 55%. Further, it took 89.7 nM to reach half-maximal inhibition at human 5-HT2A receptor [3] (CHO-K1 cells, aequorin/Gα16, 1 nmol/L 5-HT) (IC50). Besides, the “Metabolic stability” value in data set [1] was <0.05 mL/min/mg protein.

One may read the Ki as the dissociation constant of the complex between target and ligand, obtained from inhibition or displacement. Read a low Ki as tighter binding. Usually EC50 stands for the concentration at which the effect is half-maximal. As usually defined, the Emax is the size of the effect at its maximum, as opposed to the concentration needed. In general, IC50 refers to the concentration needed to halve the response being measured.
